The source of these data is patent publication US7700763B2, “3-triazolyl-galactoside inhibitors of galectins” (Forskarpatent I Syd AB, priority 2004, dated 2010).

Usually Kd stands for the concentration at which binding is half-saturated.

Experiment [1] addresses T1, Recombinant human galectin-3 (Homo sapiens, UniProt P17931).
T1 construct: made in house; host or cells: Escherichia coli
Kind of experiment: fluorescence polarization-based galectin-3 inhibition assay. It counts as binding. On the procedure: NMR-spectra were recorded with a Bruker DRX-400 instrument. Chemical shifts are given in ppm, with reference to internal residual solvent peaks. Chemical shifts and coupling constants were obtained from ^1H-NMR and proton resonances were assigned from COSY experiments. High-resolution FAB mass spectra (HRMS) were recorded with a JEOL SX-120 instrument. Fluorescence polarization experiments were performed on a PolarStar instrument (BMG, Offenburg; Germany). Column chromatography was performed on SiO2 (Matrex, 60 Å, 35-70 μm, Grace Amicon) and TLC was carried out on SiO2 60 F254 (Merck) with detection under UV light and developed with aqueous sulfuric acid. Concentrations were made using rotary evaporation with bath temperature at or below 40° C. CH2Cl2 and CH3CN were dried by distillation from CaH2. Microwell plates were from Costar, Corning, N.Y. (black polystyrene). Recombinant human galectin-3 was produced in Escherichia coli and purified as previously described (S. M. Massa et al, 1993). PBS was 118 mM NaCl, 67 mM Na/K-phosphate, pH 7.2, 2 mM EDTA, 4 mM β-mercaptoethanol.
To 100 μL of galectin-3 (1 μM) and a fluorescent probe (2-(fluorescein-5/6-yl-carbonyl)-aminoethyl 4-O-[3-O-(4-methoxy]benzyl)-β-D-galactopyranosyl]-β-D-glucopyranoside, 0.1 μM) were added inhibitor solution (3.2-10000 μM, 100 μL), the plate was incubated under slow rotary shaking in the dark for 5 minutes, and fluorescence polarization measured at room temperature. The fluorescence was measured from above in 96 well microtiter plates (black polystyrene, Costar, Corning, N.Y.) using a PolarStar instrument (BMG, Offenburg; Germany). Control wells containing only fluorescent probe or fluorescein were included. All dilutions and measurements were done in PBS.
(In fluorescence polarisation assays a small probe gives low polarisation when free and higher when bound to something large.)

Experiment [2] concerns galectins. Particulars: cited from earlier work.
The mark [3] stands for this setting: galectin-3, fluorescence polarization.

Each structure is given as a SMILES string. Like-named read-outs stand apart in the source and are kept apart here.

T1 sequence (P17931 whole entry): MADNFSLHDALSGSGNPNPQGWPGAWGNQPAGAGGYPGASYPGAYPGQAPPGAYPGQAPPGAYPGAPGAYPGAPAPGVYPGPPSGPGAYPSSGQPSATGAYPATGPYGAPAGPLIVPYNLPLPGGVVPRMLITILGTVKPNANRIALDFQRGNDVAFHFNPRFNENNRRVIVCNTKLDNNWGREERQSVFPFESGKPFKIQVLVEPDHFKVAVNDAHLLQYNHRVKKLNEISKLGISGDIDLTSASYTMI

For `CS[C@@H]1O[C@H](CO)[C@H](O)[C@H](n2ccnn2)[C@H]1O` [Compound 8, Methyl 3-deoxy-3-(1H-[1,2,3]-triazol-1-yl)-1-thio-β-D-galactopyranoside], the Kd in experiment [1] (read-out: Calculated Kd) is 2.1e+07 nM.

For `CCCc1cn([C@H]2[C@@H](O)[C@@H](CO)O[C@@H](SC)[C@@H]2O)nn1` [Compound 9, Methyl 3-deoxy-3-(4-propyl-1H-[1,2,3]-triazol-1-yl)-1-thio-β-D-galactopyranoside], the Kd in experiment [1] (read-out: Calculated Kd) was 4.62e+06 nM.

`COC(=O)c1cn([C@H]2[C@@H](O)[C@@H](CO)O[C@@H](SC)[C@@H]2O)nn1` [Compound 10, Methyl 3-(4-methoxycarbonyl-1H-[1,2,3]-triazol-1-yl)-3-deoxy-1-thio-β-D-galactopyranoside]: the Kd in experiment [1] (read-out: Calculated Kd) is 1.41e+06 nM.

For the compound `CS[C@@H]1O[C@H](CO)[C@H](O)[C@H](n2cc(C3(O)CCCCC3)nn2)[C@H]1O` [Compound 11, Methyl 3-deoxy-3-(4-(1-hydroxy-1-cyclohexyl)-1H-[1,2,3]-triazol-1-yl)-1-thio-β-D-galactopyranoside], the Kd in experiment [1] (read-out: Calculated Kd) was 1.38e+06 nM.

As to `CS[C@@H]1O[C@H](CO)[C@H](O)[C@H](n2cc(-c3ccccc3)nn2)[C@H]1O` [Compound 12, Methyl 3-deoxy-3-(4-phenyl-1H-[1,2,3]-triazol-1-yl)-1-thio-β-D-galactopyranoside], the “improvement in Kd in comparison with the reference inhibitor 27” value in experiment [1] (setting [3]) was 50 fold. In addition, the Kd in experiment [1] (read-out: Calculated Kd) is 147000 nM.

With `CS[C@@H]1O[C@H](CO)[C@H](O)[C@H](n2cc(S(=O)(=O)c3ccc(C)cc3)nn2)[C@H]1O` [Compound 13, Methyl 3-deoxy-3-(4-p-tolylsulfonyl-1H-[1,2,3]-triazol-1-yl)-1-thio-β-D-galactopyranoside], the “improvement in Kd in comparison with the reference inhibitor 27” value in experiment [1] (setting [3]) was 50 fold. Besides, the Kd in experiment [1] (read-out: Calculated Kd) is 141000 nM.

As to `CNC(=O)c1cn([C@H]2[C@@H](O)[C@@H](CO)O[C@@H](SC)[C@@H]2O)nn1` [Compound 14, Methyl 3-(4-methylaminocarbonyl-1H-[1,2,3]-triazol-1-yl)-3-deoxy-1-thio-β-D-galactopyranoside], in experiment [1] (affinity for galectin-3 calculated from test by fluorescence polarization at one tested conc., galectin-3 1 μM, probe 0.1 μM, PBS, room temperature, read-out: Calculated Kd), the Kd was 230000 nM.

With `CCCCNC(=O)c1cn(C2C(O)[C@H](SC)OC(CO)[C@@H]2O)nn1` (stereo partly drawn) [Compound 15, Methyl 3-(4-butylaminocarbonyl-1H-[1,2,3]-triazol-1′-yl)-3-deoxy-1-thio-β-D-galactopyranoside], in experiment [1] (setting [3]), the “improvement in Kd in comparison with the reference inhibitor 27” value worked out at 50 fold. Also, the dissociation constant (Kd) in experiment [1] (read-out: Calculated Kd) is 124000 nM.

Turning to `CS[C@@H]1O[C@H](CO)[C@H](O)[C@H](n2cc(C(=O)NCc3ccccc3)nn2)[C@H]1O` [Compound 16, Methyl 3-(4-benzylaminocarbonyl-1H-[1,2,3]-triazol-1-yl)-3-deoxy-1-thio-β-D-galactopyranoside], the “improvement in Kd in comparison with the reference inhibitor 27” value in experiment [1] (setting [3]) is on record as 50 fold.

For the compound `CS[C@@H]1O[C@H](CO)[C@H](O)[C@H](n2cc(C(=O)NCCCO)nn2)[C@H]1O` [Compound 17, Methyl 3-{4-(3-hydroxyprop-1-ylaminocarbonyl)-1H-[1,2,3]-triazol-1-yl}-3-deoxy-1-thio-β-D-galactopyranoside], the Kd in experiment [1] (read-out: Calculated Kd) was 386000 nM.

As for `CS[C@@H]1OC(CO)[C@H](O)C(n2cc(C(=O)NCCN3CCOCC3)nn2)C1O` (stereo partly drawn) [Compound 18, Methyl 3-{4-[2-(N-morpholino)-ethylaminocarbonyl]-1H-[1,2,3]-triazol-1-yl}-3-deoxy-1-thio-β-D-galactopyranoside], the Kd in experiment [1] (read-out: Calculated Kd) was 571000 nM.

Turning to `CNC(=O)c1cn([C@H]2[C@@H](O)[C@@H](CO)O[C@@H](S[C@@H]3O[C@H](CO)[C@H](O)[C@H](n4cc(C(=O)NC)nn4)[C@H]3O)[C@@H]2O)nn1` [Compound 26, Bis-(3-deoxy-3-{4-[(methylamino)carbonyl]-1H-1,2,3-triazol-1-yl}-β-D-galactopyranosyl)sulfane], the Kd in experiment [1] (galectin-3, fluorescence polarization, value given in text in nM, read-out: Kd) amounted to 150 nM.

`O=C[C@H](O)[C@@H](O)[C@@H](O)[C@H](O)CO` [D-galactose]: the “affinity lower than lactose” value in experiment [2] (galectins, relative to lactose) is on record as 50-100 times.

On to `OC[C@H]1O[C@@H](O[C@H]2[C@H](O)[C@@H](O)C(O)O[C@@H]2CO)[C@H](O)[C@@H](O)[C@H]1O` (some centres unmarked) [lactose], for which the Kd in experiment [2] (all galectins, reviewed by Leffler, 2001 and Leffler et al., 2004) was 500 to 1000 µM.
